What was measured:
[1] = system: CD34+/CD45RA− mobilized peripheral blood cells; conditions: Fares et al., 2014; cited from earlier work
[2] = system: Human G-CSF-mobilized peripheral blood CD34+ cells; assay: Expansion of CD34+/CD41+ megakaryocytic progenitors from mobilized peripheral blood CD34+ cells; assay type: cell-based; conditions: 39° C. + PIC 35 nM; 14 days; SFEM + BS1; FIG. 5
Protocol: Human bone marrow and G-CSF-mobilized peripheral blood CD34+ cells were purchased from AllCells.
Human CD34+-enriched cells (purity 90%) were seeded in 24-well plates at 100 000 cells/mL in expansion medium consisting of either (1) StemSpan™ ACF (ACF; […] Technologies) supplemented with the OMPC cytokine cocktail (Robert et al., 2011), or (2) StemSpan™ SFEM ([…] Technologies) supplemented with the BS1 megakaryocyte expansion and differentiation cocktail (Cortin et al., 2005). OMPC consists of 35 ng/mL thrombopoietin (TPO; Feldan Therapeutics), 10 ng/mL stem cell factor (SCF; Peprotech), and 11 ng/mL human FMS-like tyrosine kinase 3 ligand (FLT3, Peprotech). […]
Cellular counts and viability were determined by adding Solution 18 (Acridine Orange and DAPI solution, ChemomMetec) and using NucleoCounter™ NC-250 for detection (ChemomMetec).
For cells expanded in conditions favoring differentiation towards the MK lineage, surface markers were detected using the following antibodies: CD34-FITC, CD41a-APC and CD42b-PE. […] All samples were analyzed on an Accuri™ C6 flow cytometer (BD Biosciences), and raw data were analyzed with FCS Express 5 Flow Research Edition software from at least 15 000 viable cell events acquired for each sample. […]
Cellular counts and viability were determined as described in Example 6.5.

[3] = system: CD34+ cells from human umbilical cord blood; assay: CD34+ cell culture and expansion while limiting differentiation (StemSpan ACF + CC110), flow cytometry; assay type: cell-based
Protocol: CD34+ cells were isolated from human umbilical cord blood by positive selection according to standard procedures. Purified CD34+ cells from either single units or pooled from several units of cord blood were seeded in 1 mL of the appropriate culture medium in 24-well plates at a density of approximately 10^5 cells/mL. Cells were maintained at a density of 10^5-10^6 cells/mL throughout the culture by dilution and/or medium replacement.
For CD34+ cell culture and expansion while limiting differentiation, cells were grown in StemSpan™-ACF medium ([…]™ Technologies) supplemented with StemSpan™ CC110 cytokine cocktail ([…]™ Technologies), and counted on days 4, 7, 10, 14, 17, and 21.
Cell counts and viability were measured using the NucleoCounter NC-250™ Viability and Cell Count Assay system (ChemoMetec Inc., Davis, Calif.), according to the manufacturer's instructions.
Cell phenotypes were determined by flow cytometry on the indicated days using the following panel of labeled primary antibodies: CD34-FITC, CD45RA-APC, CD41a-APC, CD42b-PE, and CD235-PE.
CD34+ cells were isolated and cultured in a medium suitable for maintaining their self-renewal while limiting their differentiation into progenitors (StemSpan™ ACF supplemented with StemSpan™ CC110 cytokine cocktail, as described in Example 1.2).
Cell phenotypic profiles of the expanded CD34+ cells were determined on days 4, 7, 10, 14, 17, and 21 by flow cytometry as described in Example 1.3.

[4] = system: CD34+ cells from human umbilical cord blood; assay: CFU-MK assay (Megacult C) on cells grown in ACF + BS1; assay type: cell-based; conditions: 39° C. + PIC 35 nM; FIG. 2
Protocol: Aliquots of cells grown in StemSpan™ ACF+BS1 culture medium were collected on the indicated days, and CFU-MK were determined using the Megacult™ C kit from […]™ Technologies, according to the manufacturer's instructions.

Cl.Cn1nnc(-c2ccc3c(c2)[nH]c2nc(Cc4ccccc4)nc(N[C@H]4CC[C@H](N)CC4)c23)n1 [PIC, (1r,4r)-N1-(2-benzyl-7-(2-methyl-2H-tetrazol-5-yl)-9H-pyrimido[4,5-b]indol-4-yl)cyclohexane-1,4-diamine hydrochloride]
expansion of CD34+/CD45RA− mobilized peripheral blood cells (enriched in LT-HSCs) [1]: stimulate expansion | combined use of mild hyperthermia and PIC on expansion of CD34+/CD41+ cells [2]: synergistic effect | expansion of CD34+/CD45RA− LT-HSCs ([3]; 39° C. + PIC 35 nM, FIG. 3B): potently enhanced | Percentage of cells bearing CD34+ ([3]; Day 4, 37° C. + PIC 35 nM): 97.91% | Percentage of cells bearing CD34+/CD41+ ([3]; Day 4, 37° C. + PIC 35 nM): 12.51% | Percentage of cells bearing CD34+/CD235+ ([3]; Day 4, 37° C. + PIC 35 nM): 4.83% | Percentage of cells bearing CD41+ ([3]; Day 4, 37° C. + PIC 35 nM): 12.53% | Percentage of cells bearing CD42+ ([3]; Day 4, 37° C. + PIC 35 nM): 1.08% | Percentage of cells bearing CD45RA+ ([3]; Day 4, 37° C. + PIC 35 nM): 65.34% | Percentage of cells bearing CD235+ ([3]; Day 4, 37° C. + PIC 35 nM): 4.87% | Percentage of cells bearing CD34+ ([3]; Day 4, 39° C. + PIC 35 nM): 94.74% | Percentage of cells bearing CD34+/CD41+ ([3]; Day 4, 39° C. + PIC 35 nM): 8.37% | Percentage of cells bearing CD34+/CD235+ ([3]; Day 4, 39° C. + PIC 35 nM): 3.65% | Percentage of cells bearing CD41+ ([3]; Day 4, 39° C. + PIC 35 nM): 9.05% | Percentage of cells bearing CD42+ ([3]; Day 4, 39° C. + PIC 35 nM): 2.21% | Percentage of cells bearing CD45RA+ ([3]; Day 4, 39° C. + PIC 35 nM): 57.92% | Percentage of cells bearing CD235+ ([3]; Day 4, 39° C. + PIC 35 nM): 4.11% | Percentage of cells bearing CD34+ ([3]; Day 7, 37° C. + PIC 35 nM): 94.61% | Percentage of cells bearing CD34+/CD41+ ([3]; Day 7, 37° C. + PIC 35 nM): 15.74% | Percentage of cells bearing CD34+/CD235+ ([3]; Day 7, 37° C. + PIC 35 nM): 5.28% | Percentage of cells bearing CD41+ ([3]; Day 7, 37° C. + PIC 35 nM): 15.93% | Percentage of cells bearing CD42+ ([3]; Day 7, 37° C. + PIC 35 nM): 1.30% | Percentage of cells bearing CD45RA+ ([3]; Day 7, 37° C. + PIC 35 nM): 80.07% | Percentage of cells bearing CD34+ ([3]; Day 7, 39° C. + PIC 35 nM): 88.27% | Percentage of cells bearing CD34+/CD41+ ([3]; Day 7, 39° C. + PIC 35 nM): 16.17% | Percentage of cells bearing CD34+/CD235+ ([3]; Day 7, 39° C. + PIC 35 nM): 9.68% | Percentage of cells bearing CD41+ ([3]; Day 7, 39° C. + PIC 35 nM): 18.12% | Percentage of cells bearing CD42+ ([3]; Day 7, 39° C. + PIC 35 nM): 2.92% | Percentage of cells bearing CD45RA+ ([3]; Day 7, 39° C. + PIC 35 nM): 74.14% | Percentage of cells bearing CD235+ ([3]; Day 7, 39° C. + PIC 35 nM): 10.89% | Percentage of cells bearing CD34+ ([3]; Day 10, 37° C. + PIC 35 nM): 84.26% | Percentage of cells bearing CD34+/CD41+ ([3]; Day 10, 37° C. + PIC 35 nM): 12.94% | Percentage of cells bearing CD34+/CD235+ ([3]; Day 10, 37° C. + PIC 35 nM): 2.16% | Percentage of cells bearing CD41+ ([3]; Day 10, 37° C. + PIC 35 nM): 14.19% | Percentage of cells bearing CD42+ ([3]; Day 10, 37° C. + PIC 35 nM): 0.48% | Percentage of cells bearing CD45RA+ ([3]; Day 10, 37° C. + PIC 35 nM): 88.37% | Percentage of cells bearing CD235+ ([3]; Day 10, 37° C. + PIC 35 nM): 2.33% | Percentage of cells bearing CD34+ ([3]; Day 10, 39° C. + PIC 35 nM): 71.28% | Percentage of cells bearing CD34+/CD41+ ([3]; Day 10, 39° C. + PIC 35 nM): 20.80% | Percentage of cells bearing CD34+/CD235+ ([3]; Day 10, 39° C. + PIC 35 nM): 7.94% | Percentage of cells bearing CD41+ ([3]; Day 10, 39° C. + PIC 35 nM): 27.40% | Percentage of cells bearing CD42+ ([3]; Day 10, 39° C. + PIC 35 nM): 1.35% | Percentage of cells bearing CD45RA+ ([3]; Day 10, 39° C. + PIC 35 nM): 82.34% | Percentage of cells bearing CD235+ ([3]; Day 10, 39° C. + PIC 35 nM): 9.36% | Percentage of cells bearing CD34+ ([3]; Day 14, 37° C. + PIC 35 nM): 58.28% | Percentage of cells bearing CD34+/CD41+ ([3]; Day 14, 37° C. + PIC 35 nM): 9.55% | Percentage of cells bearing CD34+/CD45RA− ([3]; Day 14, 37° C. + PIC 35 nM): 15.22% | Percentage of cells bearing CD34+/CD235+ ([3]; Day 14, 37° C. + PIC 35 nM): 1.39% | Percentage of cells bearing CD41+ ([3]; Day 14, 37° C. + PIC 35 nM): 15.16% | Percentage of cells bearing CD42+ ([3]; Day 14, 37° C. + PIC 35 nM): 0.19% | Percentage of cells bearing CD45RA+ ([3]; Day 14, 37° C. + PIC 35 nM): 84.63% | Percentage of cells bearing CD235+ ([3]; Day 14, 37° C. + PIC 35 nM): 2.10% | Percentage of cells bearing CD34+ ([3]; Day 14, 39° C. + PIC 35 nM): 48.58% | Percentage of cells bearing CD34+/CD41+ ([3]; Day 14, 39° C. + PIC 35 nM): 13.88% | Percentage of cells bearing CD34+/CD45RA− ([3]; Day 14, 39° C. + PIC 35 nM): 19.74% | Percentage of cells bearing CD34+/CD235+ ([3]; Day 14, 39° C. + PIC 35 nM): 3.72% | Percentage of cells bearing CD41+ ([3]; Day 14, 39° C. + PIC 35 nM): 32.04% | Percentage of cells bearing CD42+ ([3]; Day 14, 39° C. + PIC 35 nM): 1.16% | Percentage of cells bearing CD45RA+ ([3]; Day 14, 39° C. + PIC 35 nM): 81.97% | Percentage of cells bearing CD34+ ([3]; Day 17, 37° C. + PIC 35 nM): 48.29% | Percentage of cells bearing CD34+/CD41+ ([3]; Day 17, 37° C. + PIC 35 nM): 9.75% | Percentage of cells bearing CD34+/CD45RA− ([3]; Day 17, 37° C. + PIC 35 nM): 13.58% | Percentage of cells bearing CD34+/CD235+ ([3]; Day 17, 37° C. + PIC 35 nM): 0.52% | Percentage of cells bearing CD41+ ([3]; Day 17, 37° C. + PIC 35 nM): 24.70% | Percentage of cells bearing CD42+ ([3]; Day 17, 37° C. + PIC 35 nM): 0.63% | Percentage of cells bearing CD45RA+ ([3]; Day 17, 37° C. + PIC 35 nM): 87.89% | Percentage of cells bearing CD235+ ([3]; Day 17, 37° C. + PIC 35 nM): 3.94% | differentiation of the cells towards the megakaryocytic and erythroid (CD235+) lineages ([3]; combined mild hyperthermia (39° C.) and PIC 35 nM): did not lead to an enhanced differentiation | combined effect of mild hyperthermia and PIC on the number of CFU-MK [4]: synergized
